Data: patent US4500526A, “Cephalosporin derivatives” (Bristol-Myers Company, priority 1983, dated 1985)
In brackets after ≈: the same amount, converted by molar mass. Where two headings read alike, the source gives them in different places.

What was measured:
[1] = system: Penicillinsensitive S. aureus (5 strains); experiment: MIC, two-fold serial agar dilution, group (G+)-Ia; assay type: cell-based; details: Staphylococcus aureus; (G+)-Ia, 5 strains, Mueller-Hinton agar; read-out: Geometric Mean of MIC
Protocol: (§1) In the primary evaluation of the compounds of this invention, the Minimum Inhibitory Concentrations (MIC's) of the compounds were determined by the two-fold serial agar dilution method in Mueller-Hinton agar against 32 strains of test organisms in six groups. The sample weights of the test compounds were adjusted according to the purity of each compound, so as to give a more accurate measure of the MIC's.
(G+)Ia: Penicillinsensitive S. aureus (5 strains)

[2] = system: Penicillinresistant S. aureus (5 strains); experiment: MIC, two-fold serial agar dilution, group (G+)-Ib; assay type: cell-based; details: Staphylococcus aureus, read-out: Geometric Mean of MIC
Protocol: as §1
(G+)Ib: Penicillinresistant S. aureus (5 strains)

[3] = system: Cephalothinsensitive E. coli (2 strains), Kl. pneumoniae (1 strain) and Pr. mirabilis (2 strains); experiment: MIC, two-fold serial agar dilution, group (G-)-Ia; assay type: cell-based; details: 5 strains, Mueller-Hinton agar, read-out: Geometric Mean of MIC
Protocol: as §1
(G-)Ia: Cephalothinsensitive E. coli (2 strains), Kl. pneumoniae (1
strain) and Pr. mirabilis (2 strains)

[4] = system: Cephalothinresistant E. coli (3 strains) and Kl. pneumoniae (3 strains); experiment: MIC, two-fold serial agar dilution, group (G-)-Ib; assay type: cell-based; details: Escherichia coli, read-out: Geometric Mean of MIC
Protocol: as §1
(G-)Ib: Cephalothinresistant E. coli (3 strains) and Kl. pneumoniae (3

[5] = system: M. morganii (1 strain), Ent. cloacae (2 strains) and Ser. marcescens (2 strains); experiment: MIC, two-fold serial agar dilution, group (G-)-II; assay type: cell-based; details: read-out: Geometric Mean of MIC
Protocol: as §1
(G-)II: M. morganii (1 strain), Ent. cloacae (2 strains) and Ser.

[6] = system: Ps. aeruginosa (6 strains); experiment: MIC, two-fold serial agar dilution, group (G-)-III; assay type: cell-based; details: Pseudomonas aeruginosa, read-out: Geometric Mean of MIC
Protocol: as §1
(G-)III: Ps. aeruginosa (6 strains)

[7] = Mouse blood levels after single intramuscular injection; assay type: in vivo, mice
Protocol: The absorption of some of the preferred compounds were determined in mice following a single intramuscular injection of the test compound (dissolved in 0.1M phosphate buffer; pH 7) at a dosage of 20 mg/kg. Blood samples were collected from the orbital sinuses into heparinized capillary tubes and assayed in Nutrient Agar (pH 6.6) using E. coli Ess-22-31 as the test organism. The blood levels at various time intervals, the half-life values (t1/2) and the areas under the curve (AUC) are shown in Table 2.

[8] = system: E. coli Juhl; experiment: Median protective dose in infected mice; assay type: in vivo; details: Escherichia coli, im, immediately after intraperitoneal challenge, read-out: PD50
Protocol: (§2) The median protective dose (PD50) of some of the preferred compounds against various microorganisms was determined in mice by intramuscular administration of the test compound immediately after an intraperitoneal bacterial challenge.

[9] = system: P. aeruginosa A9843; experiment: Median protective dose in infected mice; assay type: in vivo; details: Pseudomonas aeruginosa, im, immediately after intraperitoneal challenge, read-out: PD50
Protocol: as §2

[10] = system: S. aureus Smith; experiment: Median protective dose in infected mice; assay type: in vivo; details: Staphylococcus aureus, im, immediately after intraperitoneal challenge, read-out: PD50
Protocol: as §2

[11] = (G-)-II, 5 strains, Mueller-Hinton agar
[12] = (G-)-III, 6 strains, Mueller-Hinton agar
[13] = (G+)-Ib, 5 strains, Mueller-Hinton agar

Structure (SMILES) | MIC [1] [µg/mL] | MIC [3] [µg/mL] | MIC [4] [µg/mL] | MIC [5, 11] [µg/mL] | MIC [6, 12] [µg/mL] | AUC ([7]; in vivo, im, 20 mg/kg) [ng·h/mL] | concentration at 10 min ([7]; in vivo, im, 20 mg/kg) [ng/mL] | concentration at 20 min ([7]; in vivo, im, 20 mg/kg) [ng/mL] | concentration at 0.5 h ([7]; in vivo, im, 20 mg/kg) [ng/mL] | concentration at 40 min ([7]; in vivo, im, 20 mg/kg) [ng/mL] | concentration at 50 min ([7]; in vivo, im, 20 mg/kg) [ng/mL] | concentration at 1 h ([7]; in vivo, im, 20 mg/kg) [ng/mL] | concentration at 1.5 h ([7]; in vivo, im, 20 mg/kg) [ng/mL] | concentration at 2 h ([7]; in vivo, im, 20 mg/kg) [ng/mL] | half-life ([7]; in vivo, im, 20 mg/kg) [min] | ED50 [8] [mg/kg] | ED50 [9] [mg/kg] | ED50 [10] [mg/kg] | MIC [2, 13] [µg/mL] | also measured
C#CCO/N=C(\C(=O)NC1C(=O)N2C(C(=O)[O-])=C(C[n+]3ccc4sc(N)nc4c3)CS[C@H]12)c1csc(N)n1 (stereo partly drawn) [If, 7-[(Z)-2-(2-Aminothiazol-4-yl)-2-(propargyloxyimino)acetamido]-3-(2-amino-5-thiazolo[4,5-c]pyridinio)methyl-3-cephem-4-carboxylate] | 0.3 (≈ 0.526 µM) | 0.029 (≈ 0.0508 µM) | 0.4 (≈ 0.701 µM) | 0.35 (≈ 0.613 µM) | 2.1 (≈ 3.68 µM) | 9100 | 14000 | 11000 | 7300 | 4200 | 3600 | 3300 | 2000 | 1200 | 34 | 0.013 | 3.3 | 0.36 |  | MIC [2]: 0.8 µg/mL (≈ 1.4 µM)
Nc1nc(/C(=N/OC2(C(=O)O)CCC2)C(=O)NC2C(=O)N3C(C(=O)[O-])=C(C[n+]4ccc5sc(N)nc5c4)CS[C@H]23)cs1 (stereo partly drawn) [Ik, 7-[(Z)-2-(2-Aminothiazol-4-yl)-2-(1-carboxycyclobut-1-oxyimino)-acetamido]-3-(2-amino-5-thiazolo[4,5-c]pyridinio)methyl-3-cephem-4-carboxylate] | 1.4 (≈ 2.22 µM) | 0.015 (≈ 0.0238 µM) | 0.36 (≈ 0.571 µM) | 0.27 (≈ 0.428 µM) | 1.4 (≈ 2.22 µM) |  | 20000 | 16000 | 11000 | 8200 | 5200 | 4100 | 1800 | 670 | 22 | 0.046 | 5.5 | 3 | 3.3 (≈ 5.23 µM) | AUC ([7]; blood, mice, 20 mg/kg im, read-out: AUC): 13000 ng·h/mL
Cc1nc2c[n+](CC3=C(C(=O)[O-])N4C(=O)C(NC(=O)/C(=N\OC5(C(=O)O)CCC5)c5csc(N)n5)[C@H]4SC3)ccc2s1 (stereo partly drawn) [Im, 7-[(Z)-2-(2-Aminothiazol-4-yl)-2-(1-carboxycyclobut-1-oxyimino)-acetamido]-3-(2-methyl-5-thiazolo[4,5-c]pyridinio)methyl-3-cephem-4-carboxylate] | 3.4 (≈ 5.4 µM) | 0.027 (≈ 0.0429 µM) | 0.56 (≈ 0.889 µM) | 0.25 (≈ 0.397 µM) |  | 7100 | 13000 | 10000 | 6900 | 4800 | 2700 | 2000 | 480 | < 200 | 16 | 0.1 | 9 | 9.4 | 8.8 (≈ 14 µM) | MIC [6]: 2.5 µg/mL (≈ 3.97 µM)
CO/N=C(\C(=O)NC1C(=O)N2C(C(=O)[O-])=C(C[n+]3ccc4sc(N)nc4c3)CSC12)c1csc(N)n1 (stereo not drawn) [In, 7-[(Z)-2-(2-Aminothiazol-4-yl)-2-methoxyiminoacetamido]-3-[{5-(2-aminothiazolo[4,5-c]pyridinio)}methyl]-3-cephem-4-carboxylate] | 0.32 (≈ 0.585 µM) | 0.01 (≈ 0.0183 µM) | 0.096 (≈ 0.176 µM) | 0.17 (≈ 0.311 µM) | 1.9 (≈ 3.48 µM) | 11000 | 14000 | 14000 | 7600 | 7000 | 4400 | 3900 | 2900 | 1000 | 29 | < 0.01 | 2.8 | 0.9 | 0.72 (≈ 1.32 µM) | 
CO/N=C(\C(=O)NC1C(=O)N2C(C(=O)[O-])=C(C[n+]3ccc4sc(NC(C)=O)nc4c3)CS[C@H]12)c1csc(N)n1 (stereo partly drawn) [Ip, 7-[(Z)-2-(2-Aminothiazol-4-yl)-2-methoxyiminoacetamido]-3-(2-acetylamino-5-thiazolo[4,5-c]pyridinio)methyl-3-cephem-4-carboxylate] | 0.34 (≈ 0.578 µM) | 0.037 (≈ 0.0629 µM) | 0.4 (≈ 0.68 µM) | 0.68 (≈ 1.16 µM) | 11 (≈ 18.7 µM) | 16000 | 24000 | 18000 | 13000 | 10000 | 6800 | 5500 | 2500 | 1400 | 27 | 0.29 | 16 | 1 | 0.8 (≈ 1.36 µM) | 
CO/N=C(\C(=O)NC1C(=O)N2C(C(=O)[O-])=C(C[n+]3ccc4sc(NC(=O)CN)nc4c3)CS[C@H]12)c1csc(N)n1 (stereo partly drawn) [Iq, 7-[(Z)-2-(2-Aminothiazol-4-yl)-2-methoxyiminoacetamido]-3-(2-glycylamino-5-thiazolo[4,5-c]pyridinio)methyl-3-cephem-4-carboxylate] | 0.92 (≈ 1.52 µM) | 0.038 (≈ 0.0629 µM) | 0.61 (≈ 1.01 µM) |  | 10 (≈ 16.6 µM) | 16000 | 15000 | 17000 | 12000 | 11000 | 9900 | 8800 | 3400 | 1500 | 28 | 0.015 | 12 | 1.8 | 2.4 (≈ 3.98 µM) | MIC [5]: 0.69 µg/mL (≈ 1.14 µM)
